Experiments:
PA2G4 protein = biological target: T1, PA2G4 protein (Homo sapiens, UniProt Q9UQ80); assay: Differential scanning fluorimetry of PA2G4; format: binding; design: made in house; host or cells: BL21 (DE3) E. coli; details: relative to DMSO control
T1 sequence (Q9UQ80 1-394): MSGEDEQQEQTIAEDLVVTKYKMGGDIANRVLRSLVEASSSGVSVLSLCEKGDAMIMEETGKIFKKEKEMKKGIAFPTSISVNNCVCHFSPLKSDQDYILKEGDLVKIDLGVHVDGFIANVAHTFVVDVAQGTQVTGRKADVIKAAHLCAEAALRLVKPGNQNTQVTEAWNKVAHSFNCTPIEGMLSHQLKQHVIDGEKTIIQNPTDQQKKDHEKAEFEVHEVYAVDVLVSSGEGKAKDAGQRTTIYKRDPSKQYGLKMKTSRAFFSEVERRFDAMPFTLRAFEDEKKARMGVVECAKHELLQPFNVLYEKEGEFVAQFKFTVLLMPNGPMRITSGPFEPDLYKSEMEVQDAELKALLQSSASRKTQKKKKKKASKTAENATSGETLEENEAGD
Source text: Seeking a further reduction of toxicity and improvements in physicochemical properties, we conducted a second in silico analogue screen using the structure of #3567. A further 33 compounds were purchased and assayed (Supplementary Figure S1C).

[1] = test system: cleaved PARP and cleaved Caspase 3; assay: Western blot of apoptotic markers; format: cell-based, human; details: compared to WS6 treatment at IC50 concentration; no changes in Bcl-2 or Bax
Experimental: Protein was extracted from cell pellets using RIPA buffer (Sigma) with 10% protease inhibitor (Sigma, Sydney, Australia). Quantification of proteins was conducted using Pierce BCA protein assay kit (Thermo Scientific), according to manufacturer’s instructions. A total of 30–50 μg protein samples were loaded onto Criterion TGX 10% precast gel (Bio-Rad) or NuPAGE™ 4–12% Mini Protein Gel (Invitrogen, Life technologies) and transferred to a nitrocellulose membrane (Bio-Rad). […] Quantification of protein expression was measured by Image Lab software (Bio-Rad) and normalised to loading control.
To determine if the drug effects led to apoptosis, we stained cells with annexin-V/7-AAD, a marker of early and late apoptotic events (Figure 2D). […] To confirm the apoptotic status of the cells, protein expression of key apoptotic markers PARP/Cleaved PARP, Caspase 3/Cleaved caspase 3, BCL2, and Bax was measured (Figure 2E).

melting temperature of PA2G4 (DSF) (PA2G4 protein) | SMILES | expression of cleaved PARP and cleaved Caspase 3 [1]
increased the melting temperature | Cc1cccc(Oc2cc(N3CCC(C(=O)NCc4cccc(Br)c4)CC3)ncn2)c1C [#5333] | increased
increased the melting temperature | Cc1cccc(Oc2cc(N3CCC(C(=O)N[C@@H](C)CCc4ccccc4)CC3)ncn2)c1C [#5338] | increased

Reference: publication PMC10046377, “Inhibitors of the Oncogenic PA2G4-MYCN Protein-Protein Interface” (Cancers, 2023)
